GI50 and TGI data for eight compounds are collected here from PubChem BioAssay (NCI).

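96-well plates; 48 h exposure; 5 concentrations. Endpoints by linear interpolation between flanking doses. Not reached: highest tested concentration assigned. Abbreviation: GI50, concentration required for 50% inhibition of growth. The concentration for full growth arrest is given as TGI.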

For orientation: GI50 means the concentration giving 50% growth inhibition. For orientation: TGI means the concentration at which net growth stops. High values mean lower sensitivity of the cells, low ones greater sensitivity of the cells.

Test systems include T-47D breast; KM12 colon; MDA-MB-231 breast; UACC-257 melanoma; SF-268 CNS; SN12C renal; HL-60(TB) leukemia; HT29 colon; MOLT-4 leukemia; NCI-H226 lung.
Assay in all cases: DTP human tumour cell line panel, 48 h

On to `CCC(=O)NC1=C(Cl)C(=O)C(NC(=O)CC)=C(Cl)C1=O`, for which the GI50 was 5.51 µM in the assay on T-47D breast; greater than 43.9 µM in the assay on KM12 colon; 16.9 µM in the assay with MDA-MB-231 breast; 14.8 µM in the assay on UACC-257 melanoma; 19.7 µM with SF-268 CNS; 17.7 µM in the assay with SN12C renal. Also, the GI50 with HL-60(TB) leukemia was 2.42 µM; in the assay with HT29 colon, 25.2 µM; in the assay on MOLT-4 leukemia it was 9.55 µM; in the assay with NCI-H226 lung, greater than 45.6 µM. Moreover, the TGI is 14.2 µM in the assay on T-47D breast; greater than 57.8 µM in the assay on KM12 colon; 31.2 µM in the assay on MDA-MB-231 breast; 28.3 µM with UACC-257 melanoma; 34.2 µM with SF-268 CNS; 31.9 µM with SN12C renal. In addition, the TGI in the assay with HL-60(TB) leukemia is greater than 23.7 µM; in the assay with HT29 colon, 53.3 µM; in the assay with MOLT-4 leukemia it was greater than 21.9 µM; in the assay on NCI-H226 lung it was greater than 62.1 µM.

With `O=C1/C=C/[C@@H](O)[C@@H]2C[C@@H](O)C[C@H]2/C=C/CCC[C@H](CCO)O1`, the GI50 in the assay on T-47D breast was 0.239 µM; with KM12 colon, 0.0584 µM; in the assay with MDA-MB-231 breast, 0.182 µM; with UACC-257 melanoma, 0.0609 µM; with SF-268 CNS, 0.0782 µM; with SN12C renal it was 0.314 µM. For the same compound, the GI50 in the assay with HL-60(TB) leukemia is 0.315 µM; with HT29 colon, 0.0841 µM; with MOLT-4 leukemia it was 0.358 µM; with NCI-H226 lung it was 0.0684 µM. The TGI was 0.804 µM in the assay with T-47D breast; 0.268 µM with KM12 colon; 0.391 µM in the assay with MDA-MB-231 breast; greater than 100 µM with UACC-257 melanoma; greater than 73 µM in the assay with SF-268 CNS; greater than 80.9 µM in the assay with SN12C renal. Moreover, the TGI in the assay with HL-60(TB) leukemia was found to be 1.16 µM; in the assay on HT29 colon it was 1.31 µM; with NCI-H226 lung it was 0.287 µM.

`CN1CCN(Cc2ccc(NC(=O)c3cncc(C#Cc4ccc(N)nc4)c3)cc2C(F)(F)F)CC1`: the GI50 in the assay with T-47D breast is 1.35 µM; in the assay on KM12 colon, 0.0227 µM; in the assay on MDA-MB-231 breast it was 0.634 µM; in the assay on UACC-257 melanoma, 1.42 µM; in the assay on SF-268 CNS, 1.09 µM; in the assay on SN12C renal it was 1.11 µM. Moreover, the GI50 in the assay with HL-60(TB) leukemia is 0.945 µM; in the assay on HT29 colon, 0.728 µM; in the assay on MOLT-4 leukemia it was 1.03 µM; in the assay with NCI-H226 lung, 0.358 µM. Further, the TGI in the assay with T-47D breast is 7.14 µM; with KM12 colon, 5.3 µM; in the assay on MDA-MB-231 breast it was 1.71 µM; in the assay with UACC-257 melanoma, 5.27 µM; in the assay with SF-268 CNS, 5.3 µM; in the assay with SN12C renal it was 5.17 µM. The TGI with HL-60(TB) leukemia was 2.25 µM; with HT29 colon, 4.59 µM; with MOLT-4 leukemia it was 6.82 µM; in the assay on NCI-H226 lung, 2.75 µM.

`Nc1nc(-c2ccc3c(c2)/C(=C\c2cc(Br)c(O)c(Br)c2)C(=O)N3)cs1`: the GI50 in the assay with T-47D breast is 15.1 µM; in the assay with KM12 colon, 10.4 µM; with MDA-MB-231 breast, 17.3 µM; in the assay on UACC-257 melanoma, 5.57 µM; in the assay with SF-268 CNS it was 16.3 µM; in the assay on SN12C renal it was greater than 25 µM. Further, the GI50 in the assay with HL-60(TB) leukemia is 8.91 µM; with HT29 colon, 11.2 µM; with MOLT-4 leukemia, 16.2 µM; with NCI-H226 lung, greater than 25 µM. In addition, the TGI with T-47D breast is greater than 25 µM; in the assay on KM12 colon, greater than 25 µM; with MDA-MB-231 breast, greater than 25 µM; with UACC-257 melanoma it was 14.4 µM; with SF-268 CNS, greater than 25 µM; with SN12C renal, greater than 25 µM. Also, the TGI in the assay on HL-60(TB) leukemia was greater than 22.6 µM; with HT29 colon, greater than 25 µM; with MOLT-4 leukemia, greater than 25 µM; with NCI-H226 lung it was greater than 25 µM.

Consider `Cc1ccc2ccccc2c1CSc1nc(N)nc2c1ncn2CC(C)C`, for which the TGI is greater than 47.8 µM in the assay on T-47D breast; greater than 100 µM in the assay on KM12 colon; greater than 100 µM in the assay on MDA-MB-231 breast; greater than 87.3 µM in the assay on UACC-257 melanoma; greater than 100 µM with SF-268 CNS; greater than 100 µM with SN12C renal. The TGI is greater than 100 µM with HL-60(TB) leukemia, greater than 100 µM in the assay on HT29 colon, 29.7 µM with MOLT-4 leukemia and 72.7 µM in the assay on NCI-H226 lung.

Consider `CCN(CC)CCOc1nc2ccccc2c2c1-c1ccc(OC)cc1C2=O`, for which the GI50 is 2.51 µM in the assay with T-47D breast; 0.395 µM in the assay on KM12 colon; 1.4 µM in the assay on MDA-MB-231 breast; 1.6 µM with UACC-257 melanoma; 0.445 µM in the assay with SF-268 CNS; 0.502 µM with SN12C renal. The GI50 in the assay on HL-60(TB) leukemia was 0.395 µM; with HT29 colon it was 0.334 µM; in the assay on MOLT-4 leukemia, 0.251 µM; in the assay with NCI-H226 lung, 0.935 µM. The TGI in the assay with T-47D breast amounted to 8.8 µM; in the assay with KM12 colon, 1.58 µM; in the assay with MDA-MB-231 breast, 6.22 µM; in the assay with UACC-257 melanoma, 3.38 µM; in the assay on SF-268 CNS, 2.05 µM; with SN12C renal it was 6.21 µM. For the same compound, the total growth inhibition concentration (TGI) in the assay with HL-60(TB) leukemia came to 1.85 µM; in the assay on HT29 colon, 1.54 µM; in the assay with MOLT-4 leukemia, 0.924 µM; with NCI-H226 lung, 4.42 µM.

On to `C[C@@H]1CC[C@@H]2[C@@H]1[C@H](OC(=O)/C=C/C1CCCCC1)[C@]1(C3CCCCC3)C[C@@H](OC(=O)CO)[C@@]2(C)O1`, for which the GI50 is 11.1 µM with T-47D breast; 14.8 µM in the assay on KM12 colon; 15.4 µM in the assay with MDA-MB-231 breast; 15.8 µM with UACC-257 melanoma; 0.859 µM with SF-268 CNS; 0.0321 µM with SN12C renal. Moreover, the GI50 with HL-60(TB) leukemia was 16.3 µM; in the assay with HT29 colon it was 13.1 µM; with MOLT-4 leukemia, 13.7 µM; in the assay on NCI-H226 lung, 14.3 µM. Also, the TGI in the assay with T-47D breast came to 24.1 µM; with KM12 colon, 31.1 µM; with MDA-MB-231 breast, 29.6 µM; in the assay on UACC-257 melanoma, 29.6 µM; in the assay on SF-268 CNS, 19.7 µM; in the assay with SN12C renal it was 15.1 µM. Moreover, the TGI in the assay on HL-60(TB) leukemia was 35.3 µM; in the assay with HT29 colon, 26.7 µM; with MOLT-4 leukemia it was 31.3 µM; with NCI-H226 lung, 28 µM.

Consider `O=[N+]([O-])c1ccc2c(c1)C(N1CCN(CCO)CC1)Cc1ccc(F)cc1S2` (centres undefined), for which the total growth inhibition concentration (TGI) in the assay on T-47D breast was 37.6 µM; in the assay on KM12 colon, 21.4 µM; in the assay with MDA-MB-231 breast, 28.2 µM; with UACC-257 melanoma, 7.01 µM; in the assay on SF-268 CNS, 31.4 µM; in the assay on SN12C renal, 28.9 µM. Further, the TGI came to 23.1 µM in the assay on HL-60(TB) leukemia, 7.14 µM in the assay on HT29 colon, 9.21 µM in the assay with MOLT-4 leukemia and 23.1 µM in the assay on NCI-H226 lung.
